For one experiment, the target named is Human PARP1 (Homo sapiens (Human), UniProt P09874). In words: PARP1 autoparsylation assay (LC/MS detection of nicotinamide). It is filed as biochemical. Particulars: 20 nM enzyme, 250 μM β-NAD+, 60 min. The procedure:
(§1) The autoparsylation activity of the TNKS 1/2 or PARP1/2 enzymes was measured by the liquid chromatography-mass spectrometry (LC/MS) detection of nicotinamide as readout. Compound activity in inhibiting the TNKS and PARP autoparsylation was evaluated by IC50 measurements.

The subject of experiment [1] is Non-small lung cancer ABC-1 cells. In words: Cellular proliferation assay (CellTiter-Glo). It is filed as cell-based. Particulars: Homo sapiens, 72 h; ABC-1 cells, 3 days of compound treatment; read-out: ABC-1 IC50.
Protocol: Cellular Proliferation Assay to Determine Compound Inhibition of Cancer Cell Growth
Viable cells were measured after 3 days of compound treatment using the CellTiter-Glo assay (Promega, G7570). Assay was performed following the manufacture protocol.
Experiment [2] concerns Axin2 protein in SW480 cells. In words: Cellular ELISA assay of Axin2 protein stabilization. It is filed as cell-based. Particulars: Homo sapiens, 24 hrs, read-out: Axin AC50. In a few lines:
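SW480 colorectal cells seeded overnight, treated with compound, then lysed. Axin2 in lysates measured by sandwich ELISA: anti-Axin2 capture antibody coated at 1 μg/ml (pH 9.2), lysate 2 h at room temperature, biotinylated anti-Axin2 detection 2 h, then streptavidin-HRP 30 min.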

In experiment [3] the target is tankyrase 2 protein PARP domain, TNKS2P (Homo sapiens (Human), UniProt Q9H2K2). In words: TNKS2 autoparsylation assay (LC/MS detection of nicotinamide). Particulars: read-out: TNKS2 AP IC50, 20 nM enzyme, 250 μM β-NAD+, 60 min.
Protocol: (§2) Biochemical Assay to Determine Compound Inhibition of TNKS Enzyme Activity
(§3) The autoparsylation activity of the TNKS 1/2 or PARP1/2 enzymes was measured by the liquid chromatography-mass spectrometry (LC/MS) detection of nicotinamide as readout. Compound activity in inhibiting the TNKS and PARP autoparsylation was evaluated by IC50 measurements. […] For the background control wells, 10 μL of the 5× quenching solution per well was added prior to the addition of β-NAD^+. The % Inhibition was calculated as: (Control−Sample)/(Control−Background)*100.
The next experiment has as its target PARP2 (Mus musculus (Mouse), UniProt O88554). The experiment in a line: PARP2 autoparsylation assay (LC/MS detection of nicotinamide). It is filed as biochemical. The settings on record: 20 nM enzyme, 250 μM β-NAD+, 60 min. The protocol: as §1
The target of experiment [4] is human tankyrase 1 PARP catalytic domain, TNKS1P (Homo sapiens (Human), UniProt O95271). The experiment in a line: TNKS1 autoparsylation assay (LC/MS detection of nicotinamide). Particulars: read-out: TNKS1 AP IC50, 20 nM enzyme, 250 μM β-NAD+, 60 min.
Protocol: as §2, §3
In experiment [5] the test system is Wnt ligand-induced signaling in HEK293 cells. The experiment in a line: Wnt-responsive Super-TOpFlash (STF) luciferase reporter gene assay. It is filed as cell-based. Particulars: Homo sapiens, Wnt3A condition medium. In a few lines:
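HEK293 cells (8000/well, 5% FBS medium) treated with 20% mouse L-cell Wnt3A conditioned medium plus compounds in 10-point serial dilution; luciferase read next day. Inhibition calculated relative to Wnt3A-induced signal without compound and background without Wnt3A CM or compound.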
On the technique in general: Reporter assays use an easily measured gene product as a stand-in for the process of interest.

In experiment [6] the test system is Herpes Simplex Virus (HSV). The settings on record: cited from earlier work.

The term IC50 denotes the concentration at which inhibition is half-maximal. A word on the AC50: it is the midpoint of the concentration-response curve, whichever way the signal moves.

Chain of Human PARP1 (P09874 whole entry): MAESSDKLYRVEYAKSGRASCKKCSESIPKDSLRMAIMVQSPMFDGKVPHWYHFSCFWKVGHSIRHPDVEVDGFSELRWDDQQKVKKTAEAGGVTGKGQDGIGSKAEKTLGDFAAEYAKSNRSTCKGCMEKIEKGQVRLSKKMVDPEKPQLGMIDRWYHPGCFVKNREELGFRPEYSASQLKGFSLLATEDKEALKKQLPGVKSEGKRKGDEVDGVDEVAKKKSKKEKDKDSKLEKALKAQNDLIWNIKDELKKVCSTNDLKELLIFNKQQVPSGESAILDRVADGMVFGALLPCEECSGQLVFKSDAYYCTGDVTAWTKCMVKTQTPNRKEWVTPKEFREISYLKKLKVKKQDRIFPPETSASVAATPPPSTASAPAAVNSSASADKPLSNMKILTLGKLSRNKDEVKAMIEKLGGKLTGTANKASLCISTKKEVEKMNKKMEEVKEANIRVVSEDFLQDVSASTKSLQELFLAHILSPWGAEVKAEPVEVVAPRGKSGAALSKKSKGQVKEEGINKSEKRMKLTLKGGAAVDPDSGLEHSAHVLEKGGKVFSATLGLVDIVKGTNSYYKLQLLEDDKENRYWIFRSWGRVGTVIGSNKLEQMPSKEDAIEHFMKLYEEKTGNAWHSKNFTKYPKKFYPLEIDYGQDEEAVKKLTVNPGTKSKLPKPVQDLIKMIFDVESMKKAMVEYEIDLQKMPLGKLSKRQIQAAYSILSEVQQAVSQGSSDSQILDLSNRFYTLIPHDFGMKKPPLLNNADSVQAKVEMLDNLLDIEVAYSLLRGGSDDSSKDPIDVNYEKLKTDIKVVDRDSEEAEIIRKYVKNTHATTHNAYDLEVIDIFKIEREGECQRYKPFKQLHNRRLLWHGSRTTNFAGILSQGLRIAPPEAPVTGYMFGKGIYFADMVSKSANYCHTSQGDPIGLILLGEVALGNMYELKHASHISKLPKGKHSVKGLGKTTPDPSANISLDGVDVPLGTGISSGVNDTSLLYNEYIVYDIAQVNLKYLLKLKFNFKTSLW
Chain of tankyrase 2 protein PARP domain, TNKS2P (Q9H2K2 959-1164): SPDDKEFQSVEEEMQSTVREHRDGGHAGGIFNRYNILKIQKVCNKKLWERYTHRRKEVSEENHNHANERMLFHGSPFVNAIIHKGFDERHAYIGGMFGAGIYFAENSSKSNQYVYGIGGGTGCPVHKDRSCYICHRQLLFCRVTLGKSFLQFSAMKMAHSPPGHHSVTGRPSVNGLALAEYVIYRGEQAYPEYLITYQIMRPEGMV
Chain of human tankyrase 1 PARP catalytic domain, TNKS1P (O95271 1112-1317): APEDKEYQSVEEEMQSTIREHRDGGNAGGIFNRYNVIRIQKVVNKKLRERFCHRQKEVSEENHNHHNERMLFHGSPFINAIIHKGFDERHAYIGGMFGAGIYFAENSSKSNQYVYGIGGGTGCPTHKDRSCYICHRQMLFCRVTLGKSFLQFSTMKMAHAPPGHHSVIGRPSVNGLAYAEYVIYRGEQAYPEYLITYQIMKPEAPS
Chain of PARP2 (O88554 whole entry, the tested form may be a part): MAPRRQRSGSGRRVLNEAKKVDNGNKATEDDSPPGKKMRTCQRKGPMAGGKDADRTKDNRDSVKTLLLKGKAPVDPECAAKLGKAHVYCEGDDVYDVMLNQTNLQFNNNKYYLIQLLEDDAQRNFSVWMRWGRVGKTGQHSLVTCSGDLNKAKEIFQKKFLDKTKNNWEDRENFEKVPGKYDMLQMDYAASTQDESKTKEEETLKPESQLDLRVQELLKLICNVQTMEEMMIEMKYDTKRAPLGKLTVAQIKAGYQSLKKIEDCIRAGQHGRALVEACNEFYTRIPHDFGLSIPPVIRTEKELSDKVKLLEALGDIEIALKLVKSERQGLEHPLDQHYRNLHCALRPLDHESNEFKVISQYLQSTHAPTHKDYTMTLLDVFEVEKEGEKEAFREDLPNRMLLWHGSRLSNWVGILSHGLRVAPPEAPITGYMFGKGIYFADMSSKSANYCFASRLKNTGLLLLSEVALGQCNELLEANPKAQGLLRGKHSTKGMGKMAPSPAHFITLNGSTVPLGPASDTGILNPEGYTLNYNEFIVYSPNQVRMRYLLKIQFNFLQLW

On to `O=C(CN1CCC(C(=O)c2ccc(OCC3CC3)cc2)CC1)NCc1nc2c(c(=O)[nH]1)COCC2` [Example 85, 2-[4-(4-Cyclopropylmethoxy-benzoyl)-piperidin-1-yl]-N-(4-oxo-3,5,7,8-tetrahydro-4H-pyrano[4,3-d]pyrimidin-2-ylmethyl)-acetamide], for which the IC50 against Human PARP1 was 4.5 ± 0.58 µM; in experiment [1], 34 nM; in experiment [3] it was 10 ± 2 nM; at PARP2, 1970 ± 260 nM; in experiment [4], 23 ± 2 nM; in experiment [5], 5.2 ± 0.1 nM. For the same compound, the AC50 in experiment [2] was found to be 15 ± 2 nM.

On to `O=C(CN1CCC(C(=O)c2ccc(OCC3CCC3)cc2)CC1)NCc1nc2c(c(=O)[nH]1)COCC2` [Example 86, 2-[4-(4-Cyclobutylmethoxy-benzoyl)-piperidin-1-yl]-N-(4-oxo-3,5,7,8-tetrahydro-4H-pyrano[4,3-d]pyrimidin-2-ylmethyl)-acetamide], for which the IC50 against Human PARP1 is 2.05 ± 0.37 µM; in experiment [1], 41 nM; in experiment [3], 12 ± 1 nM; against PARP2, 885 ± 37 nM; in experiment [4] it was 30 ± 3 nM; in experiment [5] it was 820 ± 410 nM. Besides, in experiment [2], the AC50 was 29 ± 8 nM.

Regarding `O=C(CN1CCC(C(=O)c2ccc(OC3CCOCC3)cc2)CC1)NCc1nc2c(c(=O)[nH]1)COCC2` [Example 87, N-(4-Oxo-3,5,7,8-tetrahydro-4H-pyrano[4,3-d]pyrimidin-2-ylmethyl)-2-{4-[4-(tetrahydro-pyran-4-yloxy)-benzoyl]-1-yl}-acetamide], the IC50 against Human PARP1 worked out at 5.8 ± 1.3 µM; in experiment [1] it was 32 nM; in experiment [3], 29 nM; at PARP2, 2840 ± 330 nM; in experiment [4], 67 ± 4 nM; in experiment [5], 14 ± 1 nM. Besides, the AC50 in experiment [2] is 40 ± 6 nM.

As to `COCCOc1ccc(C(=O)C2CCN(CC(=O)NCc3nc4c(c(=O)[nH]3)COCC4)CC2)cc1` [Example 88, 2-{4-[4-(2-Methoxy-ethoxy)-benzoyl]-piperidin-1-yl}-N-(4-oxo-3,5,7,8-tetrahydro-4H-pyrano[4,3-d]pyrimidin-2-ylmethyl)-acetamide], the IC50 at Human PARP1 is 6.8 ± 2 µM; in experiment [1], 87 nM; in experiment [3] it was 6 nM; at PARP2, 2370 ± 520 nM; in experiment [4], 26 ± 1 nM; in experiment [5], 21 ± 5 nM. The concentration at half-maximal activity (AC50) in experiment [2] stood at 69 ± 7 nM.

Consider `O=C(CN1CCC(C(=O)c2ccc(OCCC3CC3)cc2)CC1)NCc1nc2c(c(=O)[nH]1)COCC2` [Example 89, 2-{4-[4-(2-Cyclopropyl-ethoxy)-benzoyl]-piperidin-1-yl}-N-(4-oxo-3,5,7,8-tetrahydro-4H-pyrano[4,3-d]pyrimidin-2-ylmethyl)-acetamide], for which the IC50 at Human PARP1 amounted to 1.75 ± 0.02 µM; in experiment [1] it was 87 nM; in experiment [3] it was 12 ± 2 nM; against PARP2 it was 920 ± 340 nM; in experiment [4], 21 ± 2 nM; in experiment [5], 17 ± 4 nM. For the same compound, in experiment [2], the AC50 was 52 ± 2 nM.

Regarding `O=C(CN1CCC(C(=O)c2ccc3c(c2)CCO3)CC1)NCc1nc2c(c(=O)[nH]1)COCC2` [Example 91, 2-[4-(2,3-Dihydro-benzofuran-5-carbonyl)-piperidin-1-yl]-N-(4-oxo-3,5,7,8-tetrahydro-4H-pyrano[4,3-c]pyrimidin-2-ylmethyl)-acetamide], the half-maximal inhibitory concentration (IC50) at Human PARP1 stood at 16.7 ± 0.4 µM; in experiment [1] it was 116 nM; in experiment [3], 20 nM; at PARP2, 4530 ± 70 nM; in experiment [4], 40 ± 10 nM; in experiment [5], 10 ± 7 nM. In addition, in experiment [2], the AC50 is 53 ± 25 nM.

Turning to `COc1ccc(C(=O)C2CCN(CC(=O)NCc3nc4c(c(=O)[nH]3)COCC4)CC2)cc1C` [Example 93, 2-[4-(4-Methoxy-3-methyl-benzoyl)-piperidin-1-yl]-N-(4-oxo-3,5,7,8-tetrahydro-4H-pyrano[4,3-d]pyrimidin-2-ylmethyl)-acetamide], the IC50 against Human PARP1 came to 17.1 ± 0.8 µM; in experiment [1], 2010 nM; in experiment [3], 12 nM; against PARP2, 4260 ± 210 nM; in experiment [4], 33 ± 14 nM; in experiment [5] it was 52 ± 12 nM. Also, in experiment [2], the AC50 is 1160 ± 150 nM.

As to `Oc1nc(-c2ccc(C(F)(F)F)cc2)nc2c1CSCC2` [XAV939], in experiment [6], the HSV viral growth entry is “decreased viral growth” and the “HSV viral protein expression” value is reported as “suppressed HSV viral protein expression”.
